Columns and labels:
Assay type in all cases: biochemical
[1] = molecular target: human MMP-1 (Homo sapiens (Human), UniProt P03956); assay: MMP-1 inhibition test; details: read-out: MMPs IC50 MMP-1
Method: (§1) MMP inhibition tests can be carried out, for example, using a fluorescent synthetic substrate based on the methods described in Bickett et al. (D. Mark Bickett et al., Anal. Biochem., 1993, 212, 58-64) and Nagase et al. (H. Nagase et al., J. Biol. Chem., 1994, 269, 20952-20957). The method for each MMP inhibition test is shown below.
180 μL (100 ng) of human MMP-1 (Calbiochem #444208) was mixed with 20 μL of 10 mM p-amino phenyl mercuric acetate (APMA), and activated by reacting at 37° C. for 1 hour. 20 μL of the resultant enzyme solution was diluted to 90 μL with an assay buffer A. The mixture was added to 90 μL of a 20 μM fluorescent substrate (Dnp-Pro-Cha(β-cyclohexylalanyl)-Gly-Cys(Me)-His-Ala-Lys(Nma)-NH2) (SEQ ID NO: 2) prepared with an assay buffer B, and reacted at 37° C. for 5 hours. Enzyme activity was then determined by measuring with a fluorescence intensity meter (Labsystems, Fluoroskan Ascent) at an excitation wavelength of 355 nm and a measurement wavelength of 460 nm.
(§2) From the enzyme activity in the presence or the absence of the test substance, the inhibition rate was determined, and the 50% inhibitiory concentration (IC50) of the test substance was calculated.

[2] = molecular target: human MMP-2 (Homo sapiens (Human), UniProt P08253); assay: MMP-2 inhibition test; details: read-out: MMPs IC50 MMP-2
Chain of human MMP-2 (P08253 110-660): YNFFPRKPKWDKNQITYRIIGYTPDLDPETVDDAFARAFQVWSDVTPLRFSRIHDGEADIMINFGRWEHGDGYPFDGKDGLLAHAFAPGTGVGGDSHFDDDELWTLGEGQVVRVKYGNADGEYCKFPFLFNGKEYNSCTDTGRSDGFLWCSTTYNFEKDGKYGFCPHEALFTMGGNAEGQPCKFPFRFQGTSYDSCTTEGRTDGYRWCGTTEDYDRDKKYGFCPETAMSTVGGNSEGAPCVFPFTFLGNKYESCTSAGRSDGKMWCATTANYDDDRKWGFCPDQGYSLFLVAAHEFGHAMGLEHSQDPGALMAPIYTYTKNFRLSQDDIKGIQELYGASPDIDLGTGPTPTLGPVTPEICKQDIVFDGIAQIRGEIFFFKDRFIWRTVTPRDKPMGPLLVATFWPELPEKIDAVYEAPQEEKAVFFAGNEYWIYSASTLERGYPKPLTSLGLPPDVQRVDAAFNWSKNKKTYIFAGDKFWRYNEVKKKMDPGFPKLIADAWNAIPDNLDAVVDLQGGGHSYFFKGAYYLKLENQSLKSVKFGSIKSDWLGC
Method: as §1
90 μL (5 ng) of human MMP-2 (Calbiochem #444213) was mixed with 10 μL of 10 mM APMA, and activated by reacting at 37° C. for 1 hour. 10 μL of the resultant enzyme solution was diluted to 90 μL with an assay buffer A. The mixture was added to 90 μL of a 20 μM fluorescent substrate (MOCAc((7-methoxycoumarin-4-yl)acetyl)-Pro-Leu-Gly-Leu-A2pr(Dnp)-Ala-Arg-NH2, Peptide Institute Inc., #3163-v) (SEQ ID NO: 3) prepared with an assay buffer B, and reacted at 37° C. for 5 hours. Enzyme activity was then determined by measuring with a fluorescence intensity meter (Labsystems, Fluoroskan Ascent) at an excitation wavelength of 320 nm and a measurement wavelength of 405 nm.
as §2

[3] = molecular target: TACE (Homo sapiens (Human), UniProt P78536); assay: TACE inhibition test (in vitro); details: fluorescent synthetic substrate, 37° C., 1.5 hours
Chain of TACE (P78536 215-824): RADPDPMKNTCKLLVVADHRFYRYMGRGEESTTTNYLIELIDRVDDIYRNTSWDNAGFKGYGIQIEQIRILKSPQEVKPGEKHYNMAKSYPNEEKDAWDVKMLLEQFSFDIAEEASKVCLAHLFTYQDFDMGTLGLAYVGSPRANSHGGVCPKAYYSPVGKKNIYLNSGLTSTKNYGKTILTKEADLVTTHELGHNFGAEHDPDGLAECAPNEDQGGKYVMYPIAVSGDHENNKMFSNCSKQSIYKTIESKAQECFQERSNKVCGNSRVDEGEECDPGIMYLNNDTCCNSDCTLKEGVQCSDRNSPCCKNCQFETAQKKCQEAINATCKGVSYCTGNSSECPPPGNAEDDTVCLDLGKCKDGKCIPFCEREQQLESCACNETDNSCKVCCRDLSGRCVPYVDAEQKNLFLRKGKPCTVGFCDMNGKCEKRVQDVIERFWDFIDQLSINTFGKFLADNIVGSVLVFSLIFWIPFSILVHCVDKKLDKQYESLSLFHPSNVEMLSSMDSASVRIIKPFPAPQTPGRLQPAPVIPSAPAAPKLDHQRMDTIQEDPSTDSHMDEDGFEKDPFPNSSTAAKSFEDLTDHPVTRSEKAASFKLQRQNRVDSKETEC
Summary of the method: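 Recombinant enzyme (cDNA from THP-1 cells, expressed in mammalian or insect cells) with quenched substrate Nma-Leu-Ala-Gln-Ala-Val-Arg-Ser-Ser-Lys(Dnp)-D-Arg-NH2. Incubated 1.5 h at 37 °C; fluorescence read at ex 355/em 460 nm; IC50 from inhibition rate.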

[4] = molecular target: human MMP-3 (Homo sapiens (Human), UniProt P08254); assay: MMP-3 inhibition test; details: read-out: MMPs IC50 MMP-3
Chain of human MMP-3 (P08254 100-272): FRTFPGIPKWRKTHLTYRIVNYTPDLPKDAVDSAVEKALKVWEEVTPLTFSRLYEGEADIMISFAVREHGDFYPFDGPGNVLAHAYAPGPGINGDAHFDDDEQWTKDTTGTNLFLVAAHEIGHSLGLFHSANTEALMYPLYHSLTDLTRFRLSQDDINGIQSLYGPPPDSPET
Method: as §1
90 μL (1.5 ng) of human MMP-3 (Calbiochem #444217) prepared with an assay buffer A was added to 90 μL of a 20 μM fluorescent substrate NFF-3 (MOCAc((7-methoxycoumarin-4-yl)acetyl)-Arg-Pro-Lys-Pro-Val-Glu-Nva-Trp-Arg-Lys(Dnp)-NH2, Peptide Institute Inc., #3168-v) (SEQ ID NO: 4) prepared with an assay buffer B, and reacted at 37° C. for 4 hours. Enzyme activity was then determined by measuring with a fluorescence intensity meter (Labsystems, Fluoroskan Ascent) at an excitation wavelength of 320 nm and a measurement wavelength of 405 nm.
as §2

[5] = molecular target: human MMP-14 (Homo sapiens (Human), UniProt P50281); assay: MMP-14 inhibition test; details: read-out: MMPs IC50 MMP-14
Method: as §1
90 μL (1.9 ng) of human MMP-14 (Calbiochem #475935) prepared with an assay buffer A was added to 90 μL of a 20 μM fluorescent substrate (Dnp-Pro-Cha-Gly-Cys(Me)-His-Ala-Lys(Nma)-NH2) (SEQ ID NO: 2) prepared with an assay buffer B, and reacted at 37° C. for 5 hours. Enzyme activity was then determined by measuring with a fluorescence intensity meter (Labsystems, Fluoroskan Ascent) at an excitation wavelength of 355 nm and a measurement wavelength of 460 nm.
as §2

Chain of human MMP-1 (P03956 100-469): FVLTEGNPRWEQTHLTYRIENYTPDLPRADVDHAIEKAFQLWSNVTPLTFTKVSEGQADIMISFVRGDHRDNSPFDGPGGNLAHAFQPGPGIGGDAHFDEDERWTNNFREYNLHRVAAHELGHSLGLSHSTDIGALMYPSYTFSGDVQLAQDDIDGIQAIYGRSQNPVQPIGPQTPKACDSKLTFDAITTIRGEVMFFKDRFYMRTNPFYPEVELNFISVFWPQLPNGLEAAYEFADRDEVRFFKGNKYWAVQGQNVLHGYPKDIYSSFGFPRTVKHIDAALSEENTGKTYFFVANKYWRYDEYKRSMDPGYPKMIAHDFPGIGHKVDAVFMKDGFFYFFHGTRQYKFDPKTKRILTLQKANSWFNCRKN

Row | Compound | IC50 [1] | IC50 [2] | IC50 [3] | IC50 [4] | IC50 [5]
1 | Cc1cccn(CC2(c3ccccc3)NC(=O)NC2=O)c1=O (stereo not drawn) [Compound I-1, 5-[(3-methyl-2-oxopyridin-1(2H)-yl)methyl]-5-phenyl-imidazolidine-2,4-dione] | > 100 µM | > 100 µM | < 100 nM | > 100 µM | 31 µM
2 | Cc1cccn(CC2(c3ccc(F)c(F)c3)NC(=O)NC2=O)c1=O (stereo not drawn) [Compound I-10, 5-(3,4-difluorophenyl)-5-[(3-methyl-2-oxopyridin-1(2H)-yl)methyl] imidazolidine-2,4-dione] | > 100 µM | > 100 µM | < 100 nM | > 100 µM | 30 µM
3 | COc1ccc(Cl)cc1C1(Cn2cccc(C)c2=O)NC(=O)NC1=O (stereo not drawn) [Compound I-27, 5-(5-chloro-2-methoxyphenyl)-5-[(3-methyl-2-oxopyridin-1(2H)-yl)methyl]imidazolidine-2,4-dione] | > 100 µM | 62 µM | < 100 nM | 49 µM | 11 µM
4 | Cc1cccn(CC2(c3ccc(Cc4ccc(F)cc4)cc3)NC(=O)NC2=O)c1=O (stereo not drawn) [Compound I-41, 5-[4-(4-fluorobenzyl)phenyl]-5-[(3-methyl-2-oxopyridin-1(2H)-yl)methyl] imidazolidine-2,4-dione] | 93 µM | 69 µM | < 100 nM | > 100 µM | 21 µM
5 | Cc1cccn(CC2(c3cccc(-c4cccnc4)c3)NC(=O)NC2=O)c1=O (stereo not drawn) [Compound I-62] | > 100 µM | 31 µM | < 100 nM | 39 µM | 22 µM

Other lines, results leading:

Row | IC50 [1] | IC50 [2] | IC50 [3] | IC50 [4] | IC50 [5] | Compound
6 | > 100 µM | 29 µM | < 100 nM | 74 µM | 12 µM | Cc1cccn(CC2(c3ccc(Oc4ccccc4)cc3)NC(=O)NC2=O)c1=O (stereo not drawn) [Compound I-9, 5-[(3-methyl-2-oxopyridin-1(2H)-yl)methyl]-5-(4-phenoxyphenyl)imidazolidine-2,4-dione]
7 | > 100 µM | > 100 µM | < 100 nM | > 100 µM | 22 µM | Cc1cccn(CC2(c3ccc(Cc4ccccc4)cc3)NC(=O)NC2=O)c1=O (stereo not drawn) [Compound I-40, 5-(4-benzylphenyl)-5-[(3-methyl-2-oxopyridin-1(2H)-yl)methyl]imidazolidine-2,4-dione]
8 | > 100 µM | > 10 µM | < 100 nM | > 100 µM | 6 µM | Cc1cccn(CC2(c3ccc(OCc4ccccc4)cc3)NC(=O)NC2=O)c1=O (stereo not drawn) [Compound I-64]
9 | > 100 µM | 51 µM | < 100 nM | > 100 µM | 23 µM | Cc1cccn(CC2(c3ccc(Oc4ccccc4F)cc3)NC(=O)NC2=O)c1=O (stereo not drawn) [Compound I-86]
